# From ChEMBL document CHEMBL4007467, “Effects of 6-paradol, an unsaturated ketone from gingers, on cytochrome P450-mediated drug metabolism” (Bioorg Med Chem Lett, 2017)
# Tests used:
# Assay type in all cases: ADME
# [1] = target: T1, CYP2C19 (Homo sapiens, UniProt P33261); test: Inhibition of CYP2C19 in human liver microsomes assessed as enzyme-mediated metabolite formation at 10 uM using (S)-mephenytoin as substrate preincubated for 20 mins followed by substrate addition measured after 30 mins in presence of NADPH by LC-MS/MS analysis relative to control; set-up: scale not given: the % may be the effect or the level left; settings: probe (S)-mephenytoin, read-out: Activity
# T1 sequence (P33261 whole entry): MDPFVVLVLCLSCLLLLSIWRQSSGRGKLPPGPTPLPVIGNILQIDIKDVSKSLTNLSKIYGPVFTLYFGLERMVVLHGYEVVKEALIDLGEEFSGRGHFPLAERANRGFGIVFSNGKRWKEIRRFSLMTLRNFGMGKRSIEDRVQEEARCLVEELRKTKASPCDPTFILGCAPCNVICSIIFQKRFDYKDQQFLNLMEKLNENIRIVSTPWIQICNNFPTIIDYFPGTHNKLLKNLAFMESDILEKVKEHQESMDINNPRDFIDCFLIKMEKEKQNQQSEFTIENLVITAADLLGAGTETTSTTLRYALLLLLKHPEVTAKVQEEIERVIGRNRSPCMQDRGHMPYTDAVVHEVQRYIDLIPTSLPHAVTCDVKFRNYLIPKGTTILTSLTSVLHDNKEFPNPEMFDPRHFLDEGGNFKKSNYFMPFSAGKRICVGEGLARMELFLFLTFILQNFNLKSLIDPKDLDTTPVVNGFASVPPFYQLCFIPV
# [2] = target: T2, CYP1A2 (Homo sapiens, UniProt P05177); test: Inhibition of CYP1A2 in human liver microsomes assessed as enzyme-mediated metabolite formation at 0.3 uM using phenacetin as substrate preincubated for 20 mins followed by substrate addition measured after 30 mins in presence of NADPH by LC-MS/MS analysis relative to control; set-up: scale not given: the % may be the effect or the level left; settings: probe phenacetin, read-out: Activity
# T2 sequence (P05177 whole entry): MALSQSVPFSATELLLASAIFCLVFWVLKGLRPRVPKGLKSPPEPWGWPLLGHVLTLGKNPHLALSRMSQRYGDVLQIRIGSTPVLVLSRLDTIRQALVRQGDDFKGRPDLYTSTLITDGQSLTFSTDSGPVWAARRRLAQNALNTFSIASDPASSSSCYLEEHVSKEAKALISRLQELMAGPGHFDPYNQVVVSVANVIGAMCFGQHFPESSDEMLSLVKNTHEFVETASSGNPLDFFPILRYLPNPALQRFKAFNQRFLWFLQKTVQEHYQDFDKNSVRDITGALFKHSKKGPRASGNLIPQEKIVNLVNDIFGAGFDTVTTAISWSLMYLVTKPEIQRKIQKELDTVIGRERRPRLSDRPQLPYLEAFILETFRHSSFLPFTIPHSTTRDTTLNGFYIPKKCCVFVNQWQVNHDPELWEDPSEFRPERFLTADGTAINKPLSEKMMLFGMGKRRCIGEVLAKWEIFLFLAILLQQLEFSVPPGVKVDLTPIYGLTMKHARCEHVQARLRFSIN
# [3] = target: T3, CYP2C9 (Homo sapiens, UniProt P11712); test: Inhibition of CYP2C9 in human liver microsomes assessed as enzyme-mediated metabolite formation at 30 uM using diclofenac as substrate incubated for 5 mins followed by NADPH addition measured after 30 mins by LC-MS/MS analysis relative to control; set-up: scale not given: the % may be the effect or the level left; settings: probe diclofenac, read-out: Activity
# T3 sequence (P11712 whole entry): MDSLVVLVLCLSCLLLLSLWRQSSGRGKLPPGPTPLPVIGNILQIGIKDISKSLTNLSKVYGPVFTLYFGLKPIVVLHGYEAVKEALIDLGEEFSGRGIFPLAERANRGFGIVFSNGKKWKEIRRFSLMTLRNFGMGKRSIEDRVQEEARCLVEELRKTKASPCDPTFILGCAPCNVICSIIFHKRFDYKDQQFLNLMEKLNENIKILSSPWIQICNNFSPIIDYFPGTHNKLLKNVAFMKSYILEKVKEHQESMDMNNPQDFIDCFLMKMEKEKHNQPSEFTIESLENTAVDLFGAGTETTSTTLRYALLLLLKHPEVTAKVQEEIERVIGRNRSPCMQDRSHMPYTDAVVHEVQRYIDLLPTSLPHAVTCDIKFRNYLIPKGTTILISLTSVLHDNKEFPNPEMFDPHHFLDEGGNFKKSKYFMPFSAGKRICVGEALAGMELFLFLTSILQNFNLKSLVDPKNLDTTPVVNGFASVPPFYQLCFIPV
# [4] = target: T4, CYP3A4 (Homo sapiens, UniProt P08684); test: Inhibition of CYP3A4 in human liver microsomes assessed as enzyme-mediated metabolite formation at 1 uM using midazolam as substrate incubated for 5 mins followed by NADPH addition measured after 30 mins by LC-MS/MS analysis relative to control; set-up: scale not given: the % may be the effect or the level left; settings: probe midazolam, read-out: Activity
# T4 sequence (P08684 whole entry): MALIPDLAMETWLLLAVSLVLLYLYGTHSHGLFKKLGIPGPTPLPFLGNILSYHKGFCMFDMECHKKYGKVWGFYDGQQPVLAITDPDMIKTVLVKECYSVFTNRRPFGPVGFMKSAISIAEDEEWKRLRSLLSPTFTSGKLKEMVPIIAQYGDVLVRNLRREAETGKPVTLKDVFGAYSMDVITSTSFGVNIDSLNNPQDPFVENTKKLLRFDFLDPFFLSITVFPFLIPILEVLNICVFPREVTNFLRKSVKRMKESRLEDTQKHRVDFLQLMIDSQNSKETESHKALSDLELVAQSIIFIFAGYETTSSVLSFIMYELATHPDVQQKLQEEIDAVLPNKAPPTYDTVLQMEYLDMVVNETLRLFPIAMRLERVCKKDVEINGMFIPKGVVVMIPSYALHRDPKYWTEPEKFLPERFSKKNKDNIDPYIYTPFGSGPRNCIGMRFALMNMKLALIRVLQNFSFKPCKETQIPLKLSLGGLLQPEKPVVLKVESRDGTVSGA
# [5] = target: T4, CYP3A4; test: Inhibition of CYP3A4 in human liver microsomes assessed as enzyme-mediated metabolite formation at 0.1 uM using testosterone as substrate preincubated for 20 mins followed by substrate addition measured after 30 mins in presence of NADPH by LC-MS/MS analysis relative to control; set-up: scale not given: the % may be the effect or the level left; settings: probe testosterone, read-out: Activity
# [6] = target: Cytochrome P450 2C9 (Homo sapiens, UniProt P11712); test: Inhibition of human CYP2C9 using diclofenac as substrate incubated for 5 mins followed by NADPH addition measured after 30 mins by LC-MS/MS analysis
# Chain of Cytochrome P450 2C9 (P11712 whole entry): as the sequence (P11712 whole entry) above
# [7] = target: T5, CYP2B6 (Homo sapiens, UniProt P20813); test: Inhibition of CYP2B6 in human liver microsomes assessed as enzyme-mediated metabolite formation at 3 uM using bupropion as substrate preincubated for 20 mins followed by substrate addition measured after 30 mins in presence of NADPH by LC-MS/MS analysis relative to control; set-up: scale not given: the % may be the effect or the level left; settings: probe bupropion, read-out: Activity
# T5 sequence (P20813 whole entry): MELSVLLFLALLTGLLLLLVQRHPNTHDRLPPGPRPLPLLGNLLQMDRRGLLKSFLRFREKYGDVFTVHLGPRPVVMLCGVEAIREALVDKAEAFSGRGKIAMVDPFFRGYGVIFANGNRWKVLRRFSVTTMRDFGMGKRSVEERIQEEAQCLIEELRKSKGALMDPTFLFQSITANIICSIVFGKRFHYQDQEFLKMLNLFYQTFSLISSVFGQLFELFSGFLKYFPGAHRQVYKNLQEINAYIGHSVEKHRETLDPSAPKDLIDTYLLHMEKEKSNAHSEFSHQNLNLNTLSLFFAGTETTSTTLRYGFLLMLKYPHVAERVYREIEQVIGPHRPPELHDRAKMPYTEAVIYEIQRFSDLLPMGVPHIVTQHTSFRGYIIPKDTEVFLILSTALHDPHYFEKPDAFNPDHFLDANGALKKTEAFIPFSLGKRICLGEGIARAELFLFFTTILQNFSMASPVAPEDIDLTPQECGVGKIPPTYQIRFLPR
# [8] = target: T6, Cytochrome P450 2B6 (Homo sapiens, UniProt P20813); test: Inhibition of CYP2B6 in human liver microsomes using bupropion as substrate preincubated for 20 mins followed by substrate addition measured after 30 mins in presence of NADPH by LC-MS/MS analysis
# T6 sequence (P20813 whole entry): T5 sequence (P20813 whole entry)
# [9] = target: T3, CYP2C9; test: Inhibition of CYP2C9 in human liver microsomes assessed as enzyme-mediated metabolite formation at 0.3 uM using diclofenac as substrate preincubated for 20 mins followed by substrate addition measured after 30 mins in presence of NADPH by LC-MS/MS analysis relative to control; set-up: scale not given: the % may be the effect or the level left; settings: probe diclofenac, read-out: Activity
# [10] = target: T3, CYP2C9; test: Inhibition of CYP2C9 in human liver microsomes assessed as enzyme-mediated metabolite formation at 0.3 uM using diclofenac as substrate incubated for 5 mins followed by NADPH addition measured after 30 mins by LC-MS/MS analysis relative to control; set-up: scale not given: the % may be the effect or the level left; settings: probe diclofenac, read-out: Activity
# [11] = target: T1, CYP2C19; test: Inhibition of CYP2C19 in human liver microsomes assessed as enzyme-mediated metabolite formation at 0.3 uM using (S)-mephenytoin as substrate preincubated for 20 mins followed by substrate addition measured after 30 mins in presence of NADPH by LC-MS/MS analysis relative to control; set-up: scale not given: the % may be the effect or the level left; settings: probe (S)-mephenytoin, read-out: Activity
# [12] = target: T7, CYP2A6 (Homo sapiens, UniProt P11509); test: Inhibition of CYP2A6 in human liver microsomes assessed as enzyme-mediated metabolite formation at 0.3 uM using coumarin as substrate preincubated for 20 mins followed by substrate addition measured after 30 mins in presence of NADPH by LC-MS/MS analysis relative to control; set-up: scale not given: the % may be the effect or the level left; settings: probe coumarin, read-out: Activity
# T7 sequence (P11509 whole entry): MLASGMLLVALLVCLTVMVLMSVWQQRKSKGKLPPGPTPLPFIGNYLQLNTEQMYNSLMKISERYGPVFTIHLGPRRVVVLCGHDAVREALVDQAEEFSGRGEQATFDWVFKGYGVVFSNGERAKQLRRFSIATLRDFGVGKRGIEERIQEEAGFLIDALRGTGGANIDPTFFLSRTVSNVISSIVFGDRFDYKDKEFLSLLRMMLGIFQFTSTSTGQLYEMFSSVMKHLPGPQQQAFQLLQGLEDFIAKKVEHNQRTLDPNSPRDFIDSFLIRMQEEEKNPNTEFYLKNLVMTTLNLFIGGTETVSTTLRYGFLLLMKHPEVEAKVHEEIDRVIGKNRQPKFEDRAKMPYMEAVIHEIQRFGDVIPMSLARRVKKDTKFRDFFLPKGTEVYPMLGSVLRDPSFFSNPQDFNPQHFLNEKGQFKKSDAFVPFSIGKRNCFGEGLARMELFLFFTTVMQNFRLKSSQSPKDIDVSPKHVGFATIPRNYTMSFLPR
structure (smiles),measurement,setting,value
CCCCCCCC(=O)CCc1ccc(O)c(OC)c1,"activity at 0.5 h, 10 µM",[1],44.5%
same,"activity at 0.5 h, 0.3 µM",[2],96.4%
same,"activity at 0.5 h, 30 µM",[3],30.9%
same,"activity at 0.5 h, 1 µM",[4],88.5%
same,"activity at 0.5 h, 0.1 µM",[5],93.4%
same,IC50,[6],10.5 µM
same,inhibition (INH),"[6]; human, 0.5 h",Dose-dependent effect
same,"activity at 0.5 h, 3 µM",[7],77.3%
same,IC50,[8],6.3 µM
same,"activity at 0.5 h, 0.3 µM",[9],72.6%
same,"activity at 0.5 h, 0.3 µM",[10],93.6%
same,"activity at 0.5 h, 0.3 µM",[11],81.5%
same,"activity at 0.5 h, 0.3 µM",[12],103%
